The test system of test [1] is ASPC1 cells. Kind of test: Inhibition of KRas-mediated phosphorylation of ERK (Cisbio HTRF pERK), ASPC1 cells. The class given is cell-based. The note with it: Homo sapiens, AsPC-1 cells; for IC50: ASPC1, 3 h, 3 hr compound incubation; for inhibition at 0.1 µM: ASPC1, single point at 100 nM, 3 hrs compound incubation.
Test [2] relates to H727 cells. Put plainly: Inhibition of KRas-mediated phosphorylation of ERK (Cisbio HTRF pERK), H727 cells. Format: cell-based. The conditions noted are these: Homo sapiens; for IC50: NCI-H727, 3 h, 3 hr compound incubation; for inhibition at 0.1 µM: NCI-H727, single point at 100 nM, 3 hrs compound incubation. For orientation: Time-resolved FRET reads energy transfer from a long-lived donor to a nearby acceptor.

The subject of test [3] is A549 cells. Kind of test: Inhibition of KRas-mediated phosphorylation of ERK (Cisbio HTRF pERK), A549 cells. Format: cell-based. The conditions noted are these: Homo sapiens; for inhibition at 0.1 µM: single point at 100 nM, 3 hrs compound incubation; for IC50: A549, 3 h, 3 hr compound incubation.
The subject of test [4] is H460 cells. Kind of test: Inhibition of KRas-mediated phosphorylation of ERK (Cisbio HTRF pERK), H460 cells. Format: cell-based. The conditions noted are these: Homo sapiens; for inhibition at 0.1 µM: NCI-H460, single point at 100 nM, 3 hrs compound incubation; for IC50: NCI-H460, 3 h, 3 hr compound incubation.
The test system of test [5] is HCT116 cells. Kind of test: Inhibition of KRas-mediated phosphorylation of ERK (Cisbio HTRF pERK), HCT116 cells. The class given is cell-based. The conditions noted are these: Homo sapiens; for inhibition at 0.1 µM: HCT-116, single point at 100 nM, 3 hrs compound incubation; for IC50: HCT-116, 3 h, 3 hr compound incubation.
The test system of test [6] is H358 cells. Kind of test: Inhibition of KRas-mediated phosphorylation of ERK (Cisbio HTRF pERK), H358 cells. The class given is cell-based. The conditions noted are these: Homo sapiens; for inhibition at 0.1 µM: NCI-H358, single point at 100 nM, 3 hrs compound incubation.
For test [7], the target named is KRas G12D (Homo sapiens, UniProt P01116, G12D). Put plainly: biochemical. The conditions noted are these: Binding to KRas (IC50 nM) G12D, TR-FRET displacement, KRas G12D.
For test [8], the target named is KRas G12R (Homo sapiens, UniProt P01116, G12R). Kind of test: biochemical. The conditions noted are these: Binding to KRas (IC50 nM) G12R, TR-FRET displacement, KRas G12R.
For test [9], the target named is KRas G12V (Homo sapiens, UniProt P01116, G12V). Kind of test: biochemical. The note with it: Binding to KRas (IC50 nM) G12V, TR-FRET displacement, KRas G12V.

A word on the IC50: it is the point on the concentration scale where inhibition reaches its midpoint. Read a low IC50 as higher potency. As usually defined, the inhibition is the relative decrease from the control value, in per cent.

KRas G12R, sequence (P01116 1-169 isoform P01116-2 G12R): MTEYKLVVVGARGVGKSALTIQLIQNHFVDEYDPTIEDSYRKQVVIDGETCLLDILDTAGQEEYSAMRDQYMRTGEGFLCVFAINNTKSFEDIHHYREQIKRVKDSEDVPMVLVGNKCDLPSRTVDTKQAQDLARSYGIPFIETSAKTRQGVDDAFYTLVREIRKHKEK
KRas G12D, sequence (P01116 1-169 isoform P01116-2 G12D): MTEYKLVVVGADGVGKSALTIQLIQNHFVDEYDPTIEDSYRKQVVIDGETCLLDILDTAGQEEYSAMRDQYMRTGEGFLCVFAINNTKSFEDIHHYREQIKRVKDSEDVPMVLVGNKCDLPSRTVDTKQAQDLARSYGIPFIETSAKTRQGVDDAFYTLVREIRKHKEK
KRas G12V, sequence (P01116 1-169 isoform P01116-2 G12V): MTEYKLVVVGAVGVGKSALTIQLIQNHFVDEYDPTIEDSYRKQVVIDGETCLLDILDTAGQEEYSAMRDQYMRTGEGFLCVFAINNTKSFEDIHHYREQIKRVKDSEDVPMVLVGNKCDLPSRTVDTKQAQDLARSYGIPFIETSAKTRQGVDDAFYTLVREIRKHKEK

For `CCc1c(F)ccc2cc(O)cc(N3CCc4c(nc(OC[C@@]56CCCN5C[C@H](F)C6)nc4N4CCCn5nc(C(=O)N6CC7CNC(C7)C6)cc5C4)C3)c12` (stereo partly drawn) [Example 234, 3,6-diazabicyclo[3.2.1]octan-3-yl(5-(7-(8-ethyl-7-fluoro-3-hydroxynaphthalen-1-yl)-2-(((2R,7aS)-2-fluorohexahydro-1H-pyrrolizin-7a-yl)methoxy)-5,6,7,8-tetrahydropyrido[3,4-d]pyrimidin-4-yl)-5,6,7,8-tetrahydro-4H-pyrazolo[1,5-a][1,4]diazepin-2-yl)methanone], the IC50 was 52 nM in test [1] (Cisbio pERK HTRF); 1560 nM in test [2] (Cisbio pERK HTRF); below 2 nM in test [7]; 4 nM in test [8]; below 2 nM in test [9]. Also, the inhibition at 0.1 µM is 34% in test [1]; 22% in test [2]; 9% in test [3]; -4% in test [4]; 14% in [5]; -28% in [6].

As to `CCc1c(F)ccc2cc(O)cc(N3CCc4c(nc(OC[C@@]56CCCN5C[C@H](F)C6)nc4N4CCCn5nc(CN(C)S(=O)(=O)NC)cc5C4)C3)c12` [Example 237, 7-(8-ethyl-7-fluoro-3-hydroxy-1-naphthyl)-2-(((2R,7aS)-2-fluorotetrahydro-1H-pyrrolizin-7a(5H)-yl)methoxy)-4-(2-((methylsulfamoyl)methylamino)methyl-7,8-dihydro-4H-pyrazolo[1,5-a][1,4]diazepin-5(6H)-yl)-6,8-dihydro-5H-pyrido[3,4-d]pyrimidine], the IC50 in test [1] (Cisbio pERK HTRF) was determined as 639 nM; in test [2] (Cisbio pERK HTRF), 1640 nM; in test [7], 7 nM; in test [8], 19 nM; in test [9], 13 nM. The inhibition at 0.1 µM in test [1] is 10%; in test [2], 22%; in test [3], 30%; in test [4] it was -16%; in test [5], 5%; in test [6] it was 7%.

For `CCc1c(F)ccc2cc(O)cc(N3CCc4c(nc(OC[C@@]56CCCN5C[C@H](F)C6)nc4N4CCCc5nn(C6CC6)cc5C4)C3)c12` [Example 239, 4-(4-(2-cyclopropyl-7,8-dihydropyrazolo[4,3-c]azepin-5(2H,4H,6H)-yl)-2-(((2R,7aS)-2-fluorohexahydro-1H-pyrrolizin-7a-yl)methoxy)-5,6-dihydropyrido[3,4-d]pyrimidin-7(8H)-yl)-5-ethyl-6-fluoronaphthalen-2-ol], the IC50 was 3140 nM in [1] (Cisbio pERK HTRF); 4100 nM in [2] (Cisbio pERK HTRF); 57 nM in test [7]; 21 nM in [8]; 62 nM in test [9]. Moreover, the inhibition at 0.1 µM in test [1] was 6%; in test [2], -8%; in test [3], -9%; in [4] it was 11%; in test [5], -5%; in [6] it was -8%.

`CCc1c(F)ccc2cc(O)cc(N3CCc4c(nc(OC[C@@]56CCCN5C[C@H](F)C6)nc4N4CCCCC(COCC(=O)NC)C4)C3)c12` (stereo partly drawn) [Example 245, 2-((1-(7-(8-ethyl-7-fluoro-3-hydroxynaphthalen-1-yl)-2-(((2R,7aS)-2-fluorohexahydro-1H-pyrrolizin-7a-yl)methoxy)-5,6,7,8-tetrahydropyrido[3,4-d]pyrimidin-4-yl)azepan-3-yl)methoxy)-N-methylacetamide]: the IC50 was 1460 nM in test [1] (Cisbio pERK HTRF); 1640 nM in test [2] (Cisbio pERK HTRF); 13 nM in [7]; 9 nM in test [8]; 8 nM in test [9]. In addition, the inhibition at 0.1 µM came out at 12% in test [1]; 15% in [2]; 4% in [3]; 12% in test [4]; 10% in test [5]; 5% in [6].

Consider `CCc1c(F)ccc2cc(O)cc(N3CCc4c(nc(OC[C@@]56CCCN5C[C@H](F)C6)nc4N4CCOCC5(CCO5)C4)C3)c12` (stereo partly drawn) [Example 249, 5-ethyl-6-fluoro-4-(2-(((2R,7aS)-2-fluorohexahydro-1H-pyrrolizin-7a-yl)methoxy)-4-(1,6-dioxa-9-azaspiro[3.6]decan-9-yl)-5,6-dihydropyrido[3,4-d]pyrimidin-7(8H)-yl)naphthalen-2-ol], for which the values for the IC50 in [1] (Cisbio pERK HTRF) and in [2] (Cisbio pERK HTRF) were 161 nM and 124 nM, respectively. Besides, the inhibition at 0.1 µM amounted to 1% in [1]; 21% in test [2]; 35% in test [3]; 53% in test [4]; 10% in [5]; 70% in test [6].

As for `CCc1c(F)ccc2cc(O)cc(N3CCc4c(nc(OC[C@@]56CCCN5C[C@H](F)C6)nc4N4CCCn5nc(N(C)S(N)(=O)=O)cc5C4)C3)c12` [Example 291, 7-(8-ethyl-7-fluoro-3-hydroxy-1-naphthyl)-2-(((2R,7aS)-2-fluorotetrahydro-1H-pyrrolizin-7a(5H)-yl)methoxy)-4-(2-((sulfamoyl)methylamino)-7,8-dihydro-4H-pyrazolo[1,5-a][1,4]diazepin-5(6H)-yl)-6,8-dihydro-5H-pyrido[3,4-d]pyrimidine], the inhibition at 0.1 µM in test [3] stood at 23%; in [4], 4%; in test [5] it was 12%; in test [6], 20%. In addition, the IC50 in test [7] came out at 8 nM; in test [8], 20 nM; in test [9] it was 21 nM.

`CCc1c(F)ccc2cc(O)cc(N3CCc4c(nc(OC[C@@]56CCCN5C[C@H](F)C6)nc4N4CCCCC(CC(=O)N(C)C)C4)C3)c12` (stereo partly drawn) [Example 345, 2-(1-(7-(8-ethyl-7-fluoro-3-hydroxynaphthalen-1-yl)-2-(((2R,7aS)-2-fluorohexahydro-1H-pyrrolizin-7a-yl)methoxy)-5,6,7,8-tetrahydropyrido[3,4-d]pyrimidin-4-yl)azepan-3-yl)-N,N-dimethylacetamide]: the IC50 was 1640 nM in test [1] (Cisbio pERK HTRF), 6 nM in [7], below 2 nM in [8] and 4 nM in test [9]. Moreover, the inhibition at 0.1 µM in [3] is 12%; in test [4] it was -9%; in test [5], 5%; in test [6], 13%.

In the case of `CCc1c(F)ccc2cc(O)cc(N3CCc4c(nc(OC[C@@]56CCCN5C[C@H](F)C6)nc4N4CCCn5nccc5C4)C3)c12` [Example 418, 4-(4-(7,8-dihydro-4H-pyrazolo[1,5-a][1,4]diazepin-5(6H)-yl)-2-(((2R,7aS)-2-fluorohexahydro-1H-pyrrolizin-7a-yl)methoxy)-5,6-dihydropyrido[3,4-d]pyrimidin-7(8H)-yl)-5-ethyl-6-fluoronaphthalen-2-ol], the IC50 in test [1] (Cisbio pERK HTRF) was found to be 117 nM; in [2] (Cisbio pERK HTRF), 193 nM; in test [3] (Cisbio pERK HTRF), 236 nM; in test [4] (Cisbio pERK HTRF), 375 nM; in test [5] (Cisbio pERK HTRF) it was 787 nM; in [7], 3 nM. Moreover, the IC50 is 2 nM in [8] and below 2 nM in test [9].

Turning to `CCc1c(F)ccc2cc(O)cc(N3CCc4c(nc(OC[C@@]56CCCN5C[C@H](F)C6)nc4N4CCCn5nc(C(=O)N6CC[C@H]7CC[C@@H]6C7)cc5C4)C3)c12` [Example 617, ((1R,5R)-2-azabicyclo[3.2.1]octan-2-yl)(5-(7-(8-ethyl-7-fluoro-3-hydroxynaphthalen-1-yl)-2-(((2R,7aS)-2-fluorotetrahydro-1H-pyrrolizin-7a(5H)-yl)methoxy)-5,6,7,8-tetrahydropyrido[3,4-d]pyrimidin-4-yl)-5,6,7,8-tetrahydro-4H-pyrazolo[1,5-a][1,4]diazepin-2-yl)methanone], the IC50 in test [1] is 13 nM; in [2], 15 nM; in test [3], 27 nM; in test [4] it was 40 nM; in [5] it was 115 nM; in test [6] (NCI-H358, 3 h, 3 hr compound incubation) it was 8 nM.
